Experimental data as given in patent US5294632A, “Phosphono/biaryl substituted dipetide derivatives” (Ciba-Geigy Corporation, priority 1992, dated 1994).

Columns and labels:
[1] = molecular target: T1, Neutral endopeptidase 3.4.24.11 (Rattus norvegicus, UniProt P07861); assay: in vitro inhibition of neutral endopeptidase (NEP) 3.4.24.11, GAAP substrate assay; format: biochemical; settings: rat kidney cortex membranes, 500 μM GAAP substrate, pH 7.4, 25° C., 10 minutes
T1 construct: rat kidney cortex membranes prepared by method of Maeda et al, 1983; from tissue; host or cells: rat kidney cortex membranes
T1 sequence (P07861 1-750): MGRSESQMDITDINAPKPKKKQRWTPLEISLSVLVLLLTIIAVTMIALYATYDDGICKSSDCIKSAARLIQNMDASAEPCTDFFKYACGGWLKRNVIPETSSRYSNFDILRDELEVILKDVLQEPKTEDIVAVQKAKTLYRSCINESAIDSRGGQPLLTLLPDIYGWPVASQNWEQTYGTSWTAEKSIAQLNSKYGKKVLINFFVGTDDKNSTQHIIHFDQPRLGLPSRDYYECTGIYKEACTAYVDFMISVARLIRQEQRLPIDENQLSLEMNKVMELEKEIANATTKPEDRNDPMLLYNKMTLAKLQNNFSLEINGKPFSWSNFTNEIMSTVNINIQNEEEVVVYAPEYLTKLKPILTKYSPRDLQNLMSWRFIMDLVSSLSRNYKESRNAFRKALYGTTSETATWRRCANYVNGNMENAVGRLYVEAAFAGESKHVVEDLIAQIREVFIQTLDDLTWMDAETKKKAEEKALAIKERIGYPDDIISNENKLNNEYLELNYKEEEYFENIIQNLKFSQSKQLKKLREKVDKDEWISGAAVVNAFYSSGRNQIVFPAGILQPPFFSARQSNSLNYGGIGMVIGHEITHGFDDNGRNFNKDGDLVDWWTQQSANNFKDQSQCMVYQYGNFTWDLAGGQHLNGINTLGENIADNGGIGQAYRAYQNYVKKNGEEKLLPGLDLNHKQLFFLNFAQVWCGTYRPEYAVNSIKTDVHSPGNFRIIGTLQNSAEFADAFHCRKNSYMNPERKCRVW
Experimental: The in vitro inhibition of neutral endopeptidase (NEP) 3.4.24.11 can be determined as follows:
Neutral endopeptidase 3.4.24.11 activity is determined by the hydrolysis of the substrate glutaryl-Ala-Ala-Phe-2-naphthylamide (GAAP) using a modified procedure of Orlowski and Wilk (1981). The incubation mixture (total volume 125 μl) contains 4.2 μg of protein (rat kidney cortex membranes prepared by method of Maeda et al, 1983), 50 mM tris buffer, pH 7.4 at 25° C., 500 μM substrate (final concentration), and leucine aminopeptidase M (2.5 μg). The mixture is incubated for 10 minutes at 25° C. and 100 μl of fast garnet (250 μg fast garnet/ml of 10% Tween 20 in 1M sodium acetate, pH 4.2) is added. Enzyme activity is measured spectrophotometrically at 540 nm. One unit of NEP 24.11 activity is defined as 1 nmol of 2-naphthylamine released per minute at 25° C. at pH 7.4. IC50 values are determined, i.e. the concentration of test compound required for 50% inhibition of the release of 2-naphthylamine.
The test compound is dissolved in dimethyl sulfoxide or 0.25 M sodium bicarbonate solution, and the solution is diluted with pH 7.4 buffer to the desired concentration.
In vitro testing is most appropriate for the free phosphono/carboxylic acids of the invention.

[2] = tested on: DOCA-salt hypertensive rats; assay: antihypertensive effect in DOCA-salt hypertensive rats; format: in vivo; settings: 30 mg/kg p.o., in PEG 400; DOCA-salt hypertensive rat
Experimental: The antihypertensive effect can be determined in desoxycorticosterone acetate (DOCA)-salt hypertensive rats.
DOCA-salt hypertensive rats (280-380 g) are prepared by the standard method. Rats underwent a unilateral nephrectomy and one week later are implanted with silastic pellets containing 100 mg/kg of DOCA. The rats are maintained on 1% NaCl/0.2% KCl drinking water for three to five weeks until sustained hypertension is established. The antihypertensive activity is evaluated at this time.
Two days before an experiment, the rats are anesthetized with methoxyflurane and instrumented with catheters in the femoral artery to measure arterial blood pressure. Forty-eight hours later, baseline arterial pressure and heart rate are recorded during a 1 hour period. The test compound (30 mg/kg p.o.) or vehicle is then administered and the same cardiovascular parameters are monitored for an additional 5 hours.

ANF-induced natriuresis = assay: potentiation of the natriuretic effect of ANF in anesthetized rats; format: in vivo, Male Sprague-Dawley rats; settings: 30 mg/Kg in polyethylene glycol 400, intraduodenally; ANF 1 μg/kg i.v. bolus
Experimental: The potentiation of the natriuretic effect of ANF can be determined as follows:
Male Sprague-Dawley rats (280-360 g) are anesthetized with Inactin (100 mg/kg i.p.) and instrumented with catheters in the femoral artery, femoral vein and urinary bladder to measure arterial pressure, administer ANF and collect urine, respectively. A continuous infusion of normal saline (33 μl/min) is maintained throughout the experiment to promote diuresis and sodium excretion. The experimental protocol consists of an initial 15 minute collection period (designated as pre-control) followed by three additional collection periods. Immediately after completion of the pre-control period, test compound or vehicle is administered; nothing is done for the next 45 minutes. […] At the conclusion of this period, ANF is administered (1 μg/kg i.v. bolus) to all animals and arterial pressure and renal parameters are determined during two consecutive 15 minutes collection periods.
Mean arterial pressure, urine flow and urinary sodium excretion are determined for all collection periods. Blood pressure is measured with a Gould p50 pressure transducer, urine flow is determined gravimetrically, sodium concentration is measured by flame photometry, and urinary sodium excretion is calculated as the product of urine flow and urine sodium concentration.

plasma ANF levels = assay: effect on rat plasma ANF concentration during ANF infusion; format: in vivo, Male Sprague-Dawley rats; settings: about 1-30 mg/kg p.o., in 10% ethanol/polyethylene glycol 400; ANF infused 450 ng/kg/min i.v.
Experimental: The effect of the compounds of the invention on rat plasma ANF concentration can be determined as follows:
Male Sprague-Dawley rats (275-390 g) are anesthetized with ketamine (150 mg/kg)/acepromazine (10%) and instrumented with catheters in the femoral artery and vein to obtain blood samples and infuse ANF, respectively. The rats are tethered with a swivel system and are allowed to recover for 24 hours before being studied in the conscious, unrestrained state.
In this assay, plasma ANF levels are determined in the presence and absence of NEP inhibition. On the day of study, all rats are infused continuously with ANF at 450 ng/kg/min. i.v. for the entire 5 hours of the experiment. Sixty minutes after beginning the infusion, blood samples for baseline ANF measurements are obtained (time 0) and the rats are then randomly divided into groups treated with the test compound or vehicle. Additional blood samples are taken 30, 60, 120, 180 and 240 minutes after administration of the test compound.
Plasma concentrations are determined by a specific radioimmunoassay. […] The supernatant is decanted and the pellets counted in a gamma counter. […] Plasma ANF levels are expressed as a percent of those measured in vehicle-treated animals which received ANF alone (450 ng/kg/min i.v.).

SMILES | IC50 [1] [nM] | reduction in blood pressure [2] | potentiation of ANF-induced natriuresis (ANF-induced natriuresis) | increase in plasma ANF levels (plasma ANF levels)
O=C(O)CCNC(=O)C(Cc1ccc(-c2ccccc2)cc1)NCP(=O)(O)O (centres unmarked) [N-[2-(phosphonomethylamino)-3-(4-biphenylyl)-propionyl]-3-aminopropionic acid] | ~4.3 | – | – | –
O=C(O)CCNC(=O)[C@H](Cc1ccc(-c2ccccc2)cc1)NCP(=O)(Oc1ccccc1)Oc1ccccc1 [(S)-N-[2-(diphenylphosphonomethylamino)-3-(4-biphenylyl)propionyl]-3-aminopropionic acid] | – | significant reduction in blood pressure | significant potentiation of ANF-induced natriuresis | significant increases in plasma ANF levels
O=C(O)CCNC(=O)[C@H](Cc1ccc(-c2ccccc2)cc1)NCP(=O)(O)O [(S)-antipode, S-(+)-N-[2-(phosphonomethylamino)-3-(4-biphenylyl)-propionyl]-3-aminopropionic acid] | ~1.6 | – | – | –
